Assay results from ChEMBL document CHEMBL3124916, “On the histone lysine methyltransferase activity of fungal metabolite chaetocin” (J Med Chem, 2013).
pIC50: −log10 of the molar value. The source made the active and inactive calls. No cut-off for these calls is given here.

Assays:
[1] = target: T1, Histone-lysine N-methyltransferase EHMT2 (Homo sapiens) (UniProt Q96KQ7); experiment: Reversible inhibition of N-terminal GST-tagged recombinant human Histone-lysine N-methyltransferase G9a using S-(5'-adenosyl)-L-methionine chloride as substrate assessed as enzyme recovery at 10 fold IC50 preincubated for 30 mins followed by 100 fold dilution in presence of DTT
T1 sequence (whole entry): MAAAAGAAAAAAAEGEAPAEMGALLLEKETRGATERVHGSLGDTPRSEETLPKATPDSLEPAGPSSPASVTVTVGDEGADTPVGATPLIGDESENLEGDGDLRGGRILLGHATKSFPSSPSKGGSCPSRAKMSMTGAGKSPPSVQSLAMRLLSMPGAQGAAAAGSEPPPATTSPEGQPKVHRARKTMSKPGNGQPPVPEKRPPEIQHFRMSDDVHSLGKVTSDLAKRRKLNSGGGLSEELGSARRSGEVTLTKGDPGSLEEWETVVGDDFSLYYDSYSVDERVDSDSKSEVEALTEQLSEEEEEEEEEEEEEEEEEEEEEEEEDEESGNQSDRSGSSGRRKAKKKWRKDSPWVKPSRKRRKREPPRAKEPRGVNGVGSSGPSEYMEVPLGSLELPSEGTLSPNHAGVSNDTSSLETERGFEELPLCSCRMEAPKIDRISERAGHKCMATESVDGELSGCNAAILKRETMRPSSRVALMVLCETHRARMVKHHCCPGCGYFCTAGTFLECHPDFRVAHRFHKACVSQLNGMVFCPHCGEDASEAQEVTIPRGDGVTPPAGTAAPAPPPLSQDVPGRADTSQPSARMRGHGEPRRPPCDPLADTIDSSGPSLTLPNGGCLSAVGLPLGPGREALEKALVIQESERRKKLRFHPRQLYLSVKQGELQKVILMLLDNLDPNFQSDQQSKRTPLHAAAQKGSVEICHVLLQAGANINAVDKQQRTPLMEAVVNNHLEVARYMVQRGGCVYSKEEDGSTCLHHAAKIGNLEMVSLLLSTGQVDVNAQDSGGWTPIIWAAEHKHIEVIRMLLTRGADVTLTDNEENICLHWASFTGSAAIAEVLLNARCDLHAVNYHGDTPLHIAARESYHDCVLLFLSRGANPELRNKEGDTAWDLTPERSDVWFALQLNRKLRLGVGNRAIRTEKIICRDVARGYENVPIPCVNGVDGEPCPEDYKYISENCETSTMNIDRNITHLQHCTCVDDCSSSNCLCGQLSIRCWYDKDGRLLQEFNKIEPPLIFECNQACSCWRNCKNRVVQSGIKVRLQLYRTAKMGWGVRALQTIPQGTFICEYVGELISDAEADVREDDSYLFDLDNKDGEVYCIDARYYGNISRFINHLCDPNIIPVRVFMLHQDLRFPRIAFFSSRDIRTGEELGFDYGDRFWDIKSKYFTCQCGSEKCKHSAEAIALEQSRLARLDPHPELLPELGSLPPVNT

[2] = target: T1, Histone-lysine N-methyltransferase EHMT2 (Homo sapiens); experiment: Inhibition of N-terminal GST-tagged recombinant human Histone-lysine N-methyltransferase G9a using S-(5'-adenosyl)-L-methionine chloride as substrate assessed as residual activity at 25 uM after 30 mins; values are per cent of control
[3] = Inhibition of Neurospora crassa Histone H3-K9 methyltransferase dim-5
[4] = target: T1, Histone-lysine N-methyltransferase EHMT2 (Homo sapiens); experiment: Inhibition of N-terminal GST-tagged recombinant human Histone-lysine N-methyltransferase G9a using S-(5'-adenosyl)-L-methionine chloride as substrate assessed as nonspecific denaturation of enzyme at 0.05 to 25 uM preincubated for 30 mins in presence of urea and DTT
[5] = Induction of H2O2 generation in HBSS/Phenol Red buffer at 10 to 100 uM preincubated for 15 mins by HRP assay in presence of DTT; assay type: physicochemical; conditions: 0.25 h
[6] = target: T2, Histone-lysine N-methyltransferase EHMT2 (Homo sapiens, UniProt Q96KQ7); experiment: Inhibition of N-terminal GST-tagged recombinant human Histone-lysine N-methyltransferase G9a using S-(5'-adenosyl)-L-methionine chloride as substrate after 30 mins
T2 sequence (Q96KQ7 whole entry): T1 sequence (whole entry)

[7] = target: T2, Histone-lysine N-methyltransferase EHMT2
Description: Competitive inhibition of N-terminal GST-tagged recombinant human Histone-lysine N-methyltransferase G9a using S-(5'-adenosyl)-L-methionine chloride as substrate preincubated for 30 mins followed by substrate addition measured after 30 mins

| Compound | inhibition [1] | residual activity [2] [%] | pIC50 [3] | inhibition [4] | Activity [5] | pIC50 [6] | pIC50 [7] |
| --- | --- | --- | --- | --- | --- | --- | --- |
| CN1C(=O)[C@@]23C[C@]4([C@]56C[C@@]78SS[C@@](CO)(C(=O)N7[C@H]5Nc5ccccc56)N(C)C8=O)c5ccccc5N[C@@H]4N2C(=O)[C@]1(CO)SS3 [CHAETOCIN] | Active | 8 | 5.52 | Active | Not Active | 5.59 | – |
| Nc1ncnc2c1ncn2[C@@H]1O[C@H](CSCC[C@H](N)C(=O)O)[C@@H](O)[C@H]1O | – | – | – | inactive | – | – | – |
| CN1C(=O)[C@@]23C[C@]4([C@]56C[C@@]78S[C@@](CO)(C(=O)N7[C@H]5Nc5ccccc56)N(C)C8=O)c5ccccc5N[C@@H]4N2C(=O)[C@]1(CO)S3 | – | 36 | – | – | – | 4.97 | – |
| O=C1[C@@H]2SS[C@@H](C(=O)N2Cc2ccccc2)N1Cc1ccccc1 | Active | 19 | – | – | – | 5.31 | 5.29 |
